Experimental data as given in ChEMBL document CHEMBL3352146, “Cytotoxic aaptamine derivatives from the South China Sea sponge Aaptos aaptos” (J Nat Prod, 2014).

Legend:
[1] = tested on: K562; test: Cytotoxicity against human K562 cells after 48 hrs by trypan blue exclusion method; format: functional, cell-based; conditions: K562, 48 h
[2] = tested on: HT-29; test: Cytotoxicity against human HT-29 cells after 72 hrs by methylene blue assay; conditions: HT-29, 72 h
[3] = tested on: MCF7; test: Cytotoxicity against human MCF7 cells after 72 hrs by methylene blue assay; conditions: MCF7, 72 h
[4] = tested on: KB; test: Cytotoxicity against human KB cells after 72 hrs by methylene blue assay
[5] = tested on: HepG2; test: Cytotoxicity against human HepG2 cells after 72 hrs by methylene blue assay; conditions: HepG2, 72 h
[6] = Cytotoxicity against human HL60 cells after 48 hrs by trypan blue exclusion method; format: functional, cell-based; conditions: HL-60, 48 h

Structure (SMILES) | IC50 [1] | IC50 [2] | IC50 [3] | IC50 [4] | IC50 [5] | IC50 [6]
CCOC1=Nc2c(N)c(OC)cc3ccnc(c23)C1=O | 0.22 µM | 6.6 µM | 1.2 µM | 0.66 µM | 0.6 µM | 0.11 µM
CCOc1nc2c(=O)[nH]c3c(OC)c(OC)cc4ccn1c2c43 | > 10 mg/L | > 10 mg/L | > 10 mg/L | > 10 mg/L | > 10 mg/L | > 10 mg/L
COc1cc2ccn3c(C(C)C)nc4c(=O)[nH]c(c1OC)c2c43 | > 10 mg/L | > 10 mg/L | > 10 mg/L | > 10 mg/L | > 10 mg/L | > 10 mg/L
COC1=Cc2ccnc3c4c(nc(c23)C1=O)CCCN4 | > 10 mg/L | > 10 mg/L | > 10 mg/L | > 10 mg/L | > 10 mg/L | > 10 mg/L
COc1cc2ccn3c(CC(C)C)nc4c(=O)[nH]c(c1OC)c2c43 | > 10 mg/L | > 10 mg/L | > 10 mg/L | > 10 mg/L | > 10 mg/L | > 10 mg/L
COC1=Cc2ccnc3c(NCC(C)C)cnc(c23)C1=O | 0.46 µM | 8.5 µM | 2.3 µM | 1.1 µM | 1 µM | 0.28 µM
COC1=Cc2ccnc3c(NCCC(C)C)cnc(c23)C1=O | 0.09 µM | 1.8 µM | 0.44 µM | 0.11 µM | 0.17 µM | 0.03 µM
CCC(C)c1nc2c(=O)[nH]c3c(OC)c(OC)cc4ccn1c2c43 (configuration not stated) | > 10 mg/L | > 10 mg/L | > 10 mg/L | > 10 mg/L | > 10 mg/L | > 10 mg/L
COC1=Cc2ccnc3c(NCCc4ccccc4)cnc(c23)C1=O | 0.09 µM | 2.2 µM | 0.4 µM | 0.12 µM | 0.2 µM | 0.03 µM
CCOC(=O)CCCNc1cnc2c3c(ccnc13)C=C(OC)C2=O | > 10 mg/L | > 10 mg/L | > 10 mg/L | > 10 mg/L | > 10 mg/L | > 10 mg/L
CCC(C)CNc1cnc2c3c(ccnc13)C=C(OC)C2=O (configuration not stated) | > 10 mg/L | > 10 mg/L | > 10 mg/L | > 10 mg/L | > 10 mg/L | > 10 mg/L
CNc1cnc2c3c(ccnc13)C=C(OC)C2=O | > 10 mg/L | > 10 mg/L | > 10 mg/L | > 10 mg/L | > 10 mg/L | > 10 mg/L
CC(=O)O[C@H]1C(=O)[C@@]2(C)[C@H]([C@H](OC(=O)c3ccccc3)[C@]3(O)C[C@H](OC(=O)[C@H](O)[C@@H](NC(=O)c4ccccc4)c4ccccc4)C(C)=C1C3(C)C)[C@]1(OC(C)=O)CO[C@@H]1C[C@@H]2O [PACLITAXEL] | 0.0024 µM | 0.0035 µM | 0.0032 µM | – | 0.0027 µM | 0.0015 µM
